From patent publication US8916579B2, “5-fluoropyrimidinone derivatives” (Dow AgroSciences, LLC., priority 2009, dated 2014)
Read-outs that look alike come from different tables or passages of the source.

Legend:
[1] = test system: Mycosphaerella graminicola; anamorph: Septoria tritici; Bayer code SEPTTR; experiment: Fungicidal activity: leaf blotch of wheat, greenhouse wheat plants (variety Yuma), percent disease control; assay type: in vivo; conditions: Zymoseptoria tritici
Method: Evaluation of Fungicidal Activity: Leaf Blotch of Wheat (Mycosphaerella graminicola; anamorph: Septoria tritici; Bayer code SEPTTR)
Wheat plants (variety Yuma) were grown from seed in a greenhouse in 50% mineral soil/50% soil-less Metro mix until the first leaf was fully emerged, with 7-10 seedlings per pot. These plants were inoculated with an aqueous spore suspension of Septoria tritici either prior to or after fungicide treatments. After inoculation the plants were kept in 100% relative humidity (one day in a dark dew chamber followed by two to three days in a lighted dew chamber) to permit spores to germinate and infect the leaf. The plants were then transferred to a greenhouse for disease to develop.
The effectiveness of the test compounds in controlling disease was determined by assessing the severity of disease on treated plants, then converting the severity to percent control based on the level of disease on untreated, inoculated plants. • In each case of Table II the rating scale is as follows: […]

[2] = 24 h, One-Day Protectant (1DP), 100 ppm, wheat plants, read-out: SEPTTR 100 PPM 1DP (% Disease Control rating)
[3] = 72 h, Three-Day Curative (3DC), 100 ppm, wheat plants, read-out: SEPTTR 100 PPM 3DC (% Disease Control rating)
[4] = 24 h, read-out: SEPTTR 100 PPM 1DP (% Disease Control rating)
[5] = 72 h, read-out: SEPTTR 100 PPM 3DC (% Disease Control rating)

## Nc1nc(=O)n(COCc2ccccc2)cc1F [Compound 14, 4-amino-1-(benzyloxymethyl)-5-fluoropyrimidin-2(1H)-one]
[1]; [2]
  pest or weed control at 100 ppm: 0 to 25%
[1]; [3]
  pest or weed control at 100 ppm: 0 to 25%
other
  melting point: 213 to 217 °C

## COCCOCn1cc(F)c(N)nc1=O [Compound 16]
[1]; [2]
  pest or weed control at 100 ppm: 0 to 25%
[1]; [3]
  pest or weed control at 100 ppm: 0 to 25%
other
  melting point: 160 to 163 °C

## C[Si](C)(C)CCOCn1cc(F)c(N)nc1=O [Compound 17]
[1]; [2]
  pest or weed control at 100 ppm: 51 to 75%
[1]; [3]
  pest or weed control at 100 ppm: 76 to 100%
other
  melting point: 187 to 192 °C

## CCCCCCCCOCn1cc(F)c(N)nc1=O [Compound 18]
[1]; [2]
  pest or weed control at 100 ppm: 26 to 50%
[1]; [3]
  pest or weed control at 100 ppm: 51 to 75%
other
  melting point: 166 to 170 °C

## Nc1nc(=O)n(COc2ccc(Cl)cc2)cc1F [Compound 19]
[1]; [2]
  pest or weed control at 100 ppm: 26 to 50%
[1]; [3]
  pest or weed control at 100 ppm: 0 to 25%
other
  melting point: 240 to 245 °C

## CCOC(=O)C(OCC)n1cc(F)c(N)nc1=O (stereo not drawn) [Compound 20]
[1]; [2]
  pest or weed control at 100 ppm: 0 to 25%
[1]; [3]
  pest or weed control at 100 ppm: 0 to 25%
other
  melting point: 150 to 154 °C

## CCCC(=O)OCn1cc(F)c(N)nc1=O [Compound 21]
[1]; [2]
  pest or weed control at 100 ppm: 76 to 100%
[1]; [3]
  pest or weed control at 100 ppm: 76 to 100%
other
  melting point: 210 to 214 °C

## CC(C)(C)C(=O)OCn1cc(F)c(N)nc1=O [Compound 22]
[1]; [2]
  pest or weed control at 100 ppm: 76 to 100%
[1]; [3]
  pest or weed control at 100 ppm: 76 to 100%
other
  melting point: 259 to 264 °C

## CCOC(=O)OC(C)n1cc(F)c(N)nc1=O (stereo not drawn) [Compound 23]
[1]; [2]
  pest or weed control at 100 ppm: 76 to 100%
[1]; [3]
  pest or weed control at 100 ppm: 76 to 100%
other
  melting point: 162 to 166 °C

## CSCn1cc(F)c(/N=C/N(C)C)nc1=O [Compound 24, N′-(5-fluoro-1-methylsulfanylmethyl-2-oxo-1,2-dihydropyrimidin-4-yl)-N,N-dimethylformamidine]
[1]; [4]
  pest or weed control at 100 ppm: 76 to 100%
[1]; [5]
  pest or weed control at 100 ppm: 76 to 100%
other
  melting point: 132 to 136 °C

## Nc1nc(=O)n(CCCCI)cc1F [Compound 26, 4-amino-5-fluoro-1-(4-iodobutyl)-1H-pyrimidin-2-one]
[1]; [4]
  pest or weed control at 100 ppm: 0 to 25%
[1]; [5]
  pest or weed control at 100 ppm: 26 to 50%
other
  melting point: 181 to 184 °C

## Nc1nc(=O)n(CCCCn2cncn2)cc1F [Compound 27, 4-amino-5-fluoro-1-(4-[1,2,4]triazol-1-yl-butyl)-1H-pyrimidin-2-one]
[1]; [2]
  pest or weed control at 100 ppm: 0 to 25%
[1]; [3]
  pest or weed control at 100 ppm: 0 to 25%
other
  melting point: 197 to 200 °C

## Cn1cc(F)c(N)nc1=O [Compound 28, 4-amino-5-fluoro-1-methylpyrimidin-2(1H)-one]
[1]; [2]
  pest or weed control at 100 ppm: 51 to 75%
[1]; [3]
  pest or weed control at 100 ppm: 76 to 100%
other
  melting point: 195 °C (dec.)

## CCn1cc(F)c(N)nc1=O [Compound 29]
[1]; [2]
  pest or weed control at 100 ppm: 51 to 75%
[1]; [3]
  pest or weed control at 100 ppm: 76 to 100%
other
  melting point: 279 °C (dec.)

## COc1ccc(CCn2cc(F)c(N)nc2=O)cc1 [Compound 30]
[1]; [2]
  pest or weed control at 100 ppm: 0 to 25%
[1]; [3]
  pest or weed control at 100 ppm: 76 to 100%
other
  melting point: 168 to 189 °C

## Nc1nc(=O)n(CCc2ccc(Cl)cc2)cc1F [Compound 31]
[1]; [2]
  pest or weed control at 100 ppm: 0 to 25%
[1]; [3]
  pest or weed control at 100 ppm: 76 to 100%
other
  melting point: 252 to 254 °C

## Nc1nc(=O)n(CC2CCOC2)cc1F (stereo not drawn) [Compound 32]
[1]; [2]
  pest or weed control at 100 ppm: 76 to 100%
[1]; [3]
  pest or weed control at 100 ppm: 76 to 100%
other
  melting point: 255 °C (dec.)

## Nc1nc(=O)n(Cc2ccc(F)cc2F)cc1F [Compound 33]
[1]; [2]
  pest or weed control at 100 ppm: 0 to 25%
[1]; [3]
  pest or weed control at 100 ppm: 51 to 75%
other
  melting point: 250 to 254 °C

## CCn1cc(F)c(/N=C/N(C)C)nc1=O [Compound 34, (E)-N′-(1-ethyl-5-fluoro-2-oxo-1,2-dihydropyrimidin-4-yl)-N,N-dimethylformimidamide]
[1]; [2]
  pest or weed control at 100 ppm: 76 to 100%
[1]; [3]
  pest or weed control at 100 ppm: 76 to 100%
other
  melting point: 157 to 160 °C

## CN(C)/C=N/c1nc(=O)n(Cc2ccc(F)c(F)c2)cc1F [Compound 35]
[1]; [2]
  pest or weed control at 100 ppm: 51 to 75%
[1]; [3]
  pest or weed control at 100 ppm: 51 to 75%
other
  melting point: 196 to 200 °C

## CCOC(=O)Cn1cc(F)c(/N=C/N(C)C)nc1=O [Compound 36]
[1]; [2]
  pest or weed control at 100 ppm: 51 to 75%
[1]; [3]
  pest or weed control at 100 ppm: 26 to 50%
other
  melting point: 196 to 199 °C

## Nc1nc(=O)n(-c2ccsc2)cc1F [Compound 39, 4-amino-5-fluoro-1-(thiophen-3-yl)pyrimidin-2(1H)-one]
[1]; [4]
  pest or weed control at 100 ppm: 0 to 25%
[1]; [5]
  pest or weed control at 100 ppm: 76 to 100%
other
  melting point: 228 to 229 °C

## COc1ccc(-n2cc(F)c(N)nc2=O)cc1OC [Compound 40]
[1]; [2]
  pest or weed control at 100 ppm: 0 to 25%
[1]; [3]
  pest or weed control at 100 ppm: 0 to 25%
other
  melting point: 244.8 to 245.6 °C

## C=Cn1cc(F)c(N)nc1=O [Compound 41]
[1]; [2]
  pest or weed control at 100 ppm: 76 to 100%
[1]; [3]
  pest or weed control at 100 ppm: 76 to 100%
other
  melting point: 213.5 to 214.4 °C

## Cc1ccc(-n2cc(F)c(N)nc2=O)cc1 [Compound 43]
[1]; [2]
  pest or weed control at 100 ppm: 26 to 50%
[1]; [3]
  pest or weed control at 100 ppm: 0 to 25%
other
  melting point: 225 to 227 °C

## N#Cc1cccc(-n2cc(F)c(N)nc2=O)c1 [Compound 46]
[1]; [2]
  pest or weed control at 100 ppm: 0 to 25%
[1]; [3]
  pest or weed control at 100 ppm: 0 to 25%
other
  melting point: 175 to 178 °C

## Nc1nc(=O)n(-c2ccc3c(c2)OCO3)cc1F [Compound 47]
[1]; [2]
  pest or weed control at 100 ppm: 26 to 50%
[1]; [3]
  pest or weed control at 100 ppm: 0 to 25%
other
  melting point: 275 to 279 °C

## CN(C)/C=N/c1nc(=O)n(-c2ccsc2)cc1F [Compound 56, (E)-N′-(5-fluoro-2-oxo-1-(thiophen-3-yl)-1,2-dihydropyrimidin-4-yl)-N,N-dimethylformimidamide]
[1]; [2]
  pest or weed control at 100 ppm: 26 to 50%
[1]; [3]
  pest or weed control at 100 ppm: 51 to 75%
other
  melting point: 211 to 213 °C

## COc1ccc(-n2cc(F)c(/N=C/N(C)C)nc2=O)cc1OC [Compound 57]
[1]; [2]
  pest or weed control at 100 ppm: 0 to 25%
[1]; [3]
  pest or weed control at 100 ppm: 0 to 25%
other
  melting point: 196.1 to 198 °C

## C=Cn1cc(F)c(/N=C/N(C)C)nc1=O [Compound 58]
[1]; [2]
  pest or weed control at 100 ppm: 76 to 100%
[1]; [3]
  pest or weed control at 100 ppm: 76 to 100%
other
  melting point: 179.6 to 181.3 °C

## O=c1nc(NCc2ccccc2F)c(F)cn1-c1ccsc1 [Compound 65, 5-fluoro-4-(2-fluorobenzylamino)-1-(thiophen-3-yl)pyrimidin-2(1H)-one]
[1]; [2]
  pest or weed control at 100 ppm: 0 to 25%
[1]; [3]
  pest or weed control at 100 ppm: 0 to 25%
other
  melting point: 75 to 78 °C

## COc1ccc(-n2cc(F)c(NCc3ccccc3F)nc2=O)cc1OC [Compound 66]
[1]; [2]
  pest or weed control at 100 ppm: 0 to 25%
[1]; [3]
  pest or weed control at 100 ppm: 0 to 25%
other
  melting point: 206.3 to 207.9 °C

## C=Cn1cc(F)c(NCc2ccccc2F)nc1=O [Compound 67]
[1]; [2]
  pest or weed control at 100 ppm: 0 to 25%
[1]; [3]
  pest or weed control at 100 ppm: 51 to 75%
other
  melting point: 168.6 to 169.1 °C

## Nc1nc(=O)n(CC2CCCO2)cc1F (stereo not drawn) [Compound 76]
[1]; [2]
  pest or weed control at 100 ppm: 0 to 25%
[1]; [3]
  pest or weed control at 100 ppm: 51 to 75%
other
  melting point: 179.2 to 181.1 °C

## CC(C)Cn1cc(F)c(N)nc1=O [Compound 77]
[1]; [2]
  pest or weed control at 100 ppm: 26 to 50%
[1]; [3]
  pest or weed control at 100 ppm: 0 to 25%
other
  melting point: 140 to 142.8 °C

## CCOC(=O)Nc1nc(=O)n(CC2CC2)cc1F [Compound 80, ethyl 1-(cyclopropylmethyl)-5-fluoro-2-oxo-1,2-dihydropyrimidin-4-ylcarbamate]
[1]; [4]
  pest or weed control at 100 ppm: 0 to 25%
[1]; [5]
  pest or weed control at 100 ppm: 51 to 75%
other
  melting point: 90 to 92 °C

## O=C(Nc1nc(=O)n(CC2CC2)cc1F)OCc1ccccc1 [Compound 81]
[1]; [2]
  pest or weed control at 100 ppm: 26 to 50%
[1]; [3]
  pest or weed control at 100 ppm: 76 to 100%
other
  melting point: 228 to 230 °C

## O=C(Oc1ccccc1)N(C(=O)Oc1ccccc1)c1nc(=O)n(CC2CC2)cc1F [Compound 82]
[1]; [4]
  pest or weed control at 100 ppm: 26 to 50%
[1]; [5]
  pest or weed control at 100 ppm: 26 to 50%
other
  melting point: 159 to 161 °C
